Reference: PubChem BioAssay AID1963443 (Molecular Pharmacology Branch, DTP, NCI, 2024)
pIC50: −log10 of the molar value.

System: MDA-MB-231 complex spheroids, growth inhibition
Assay: Anticancer human tumor MDA-MB-231 cell line growth inhibition [Asc];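 note: spheroids exposed to compounds for 7 days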
Conditions: for pIC50: curve of first compound; for viability, T/C: stronger effect = lower value
Procedure, shortened: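 Complex solid-tumor spheroids incorporating human endothelial and mesenchymal stem cells received single agents or combinations over half-log dilution ranges anchored to clinical Cmax.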

[1] = second compound 0.01 µM, first compound 0.00316 µM
[2] = second compound 0.01 µM, first compound 0.01 µM
[3] = second compound 0.01 µM, first compound 0.0316 µM
[4] = second compound 0.01 µM, first compound 0.1 µM
[5] = second compound 0.0316 µM, first compound 0.00316 µM
[6] = second compound 0.0316 µM, first compound 0.01 µM
[7] = second compound 0.0316 µM, first compound 0.0316 µM
[8] = second compound 0.0316 µM, first compound 0.1 µM
[9] = second compound 0.1 µM, first compound 0.00316 µM
[10] = second compound 0.1 µM, first compound 0.01 µM
[11] = second compound 0.1 µM, first compound 0.0316 µM
[12] = second compound 0.1 µM, first compound 0.1 µM
[13] = second compound 0.316 µM, first compound 0.00316 µM
[14] = second compound 0.316 µM, first compound 0.01 µM
[15] = second compound 0.316 µM, first compound 0.0316 µM
[16] = second compound 0.316 µM, first compound 0.1 µM
[17] = second compound 1 µM, first compound 0.00316 µM
[18] = second compound 1 µM, first compound 0.01 µM
[19] = second compound 1 µM, first compound 0.0316 µM
[20] = second compound 1 µM, first compound 0.1 µM

COc1c(OCCCN2CCOCC2)ccc2c3n(c(=NC(=O)c4cnc(N)nc4)nc12)CCN3 + CNC(C)C(=O)NC1CN(S(=O)(=O)c2cccc(S(=O)(=O)N3CCC4CCC(C(=O)NC(c5ccccc5)c5ccccc5)N4C(=O)C(NC(=O)C(C)NC)C3)c2)CCC2CCC(C(=O)NC(c3ccccc3)c3ccccc3)N2C1=O
pIC50 (second compound 0.01 µM): > 8.50 | pIC50 (second compound 0.0316 µM): > 8.50 | pIC50 (second compound 0.1 µM): > 8.50 | pIC50 (second compound 0.316 µM): > 8.50 | pIC50 (second compound 1 µM): > 8.50 | viability, T/C [1]: 3.3% | viability, T/C [2]: 4.73% | viability, T/C [3]: 3.39% | viability, T/C [4]: 3.64% | viability, T/C (second compound 0.01 µM, first compound 0.316 µM): 2.42% | viability, T/C (second compound 0.01 µM, first compound 1 µM): 3.12% | viability, T/C [5]: 2.47% | viability, T/C [6]: 3.12% | viability, T/C [7]: 1.48% | viability, T/C [8]: 1.69% | viability, T/C (second compound 0.0316 µM, first compound 0.316 µM): 1.21% | viability, T/C (second compound 0.0316 µM, first compound 1 µM): 1.12% | viability, T/C [9]: 2.16% | viability, T/C [10]: 2.68% | viability, T/C [11]: 2.19% | viability, T/C [12]: 1.47% | viability, T/C (second compound 0.1 µM, first compound 0.316 µM): 1.18% | viability, T/C (second compound 0.1 µM, first compound 1 µM): 0.78% | viability, T/C [13]: 1.32% | viability, T/C [14]: 1.65% | viability, T/C [15]: 1.85% | viability, T/C [16]: 1.41% | viability, T/C (second compound 0.316 µM, first compound 0.316 µM): 0.21% | viability, T/C (second compound 0.316 µM, first compound 1 µM): 0.62% | viability, T/C [17]: 1.05% | viability, T/C [18]: 1.1% | viability, T/C [19]: 0.84% | viability, T/C [20]: 0.98% | viability, T/C (second compound 1 µM, first compound 0.316 µM): 0.77% | viability, T/C (second compound 1 µM, first compound 1 µM): 0.29%

NC(=O)C(=Cn1cnc(-c2cc(C(F)(F)F)cc(C(F)(F)F)c2)n1)c1cncnc1 + CNC(C)C(=O)NC1CN(S(=O)(=O)c2cccc(S(=O)(=O)N3CCC4CCC(C(=O)NC(c5ccccc5)c5ccccc5)N4C(=O)C(NC(=O)C(C)NC)C3)c2)CCC2CCC(C(=O)NC(c3ccccc3)c3ccccc3)N2C1=O
pIC50 (second compound 0.01 µM): > 9.02 | pIC50 (second compound 0.0316 µM): > 9.02 | pIC50 (second compound 0.1 µM): > 9.02 | pIC50 (second compound 0.316 µM): > 9.02 | pIC50 (second compound 1 µM): > 9.02 | viability, T/C (second compound 0.01 µM, first compound 0.000949 µM): 3.47% | viability, T/C (second compound 0.01 µM, first compound 0.003 µM): 3.32% | viability, T/C (second compound 0.01 µM, first compound 0.00949 µM): 2.92% | viability, T/C (second compound 0.01 µM, first compound 0.03 µM): 3.34% | viability, T/C (second compound 0.01 µM, first compound 0.0949 µM): 3.01% | viability, T/C (second compound 0.01 µM, first compound 0.3 µM): 1.3% | viability, T/C (second compound 0.0316 µM, first compound 0.000949 µM): 1.67% | viability, T/C (second compound 0.0316 µM, first compound 0.003 µM): 1.38% | viability, T/C (second compound 0.0316 µM, first compound 0.00949 µM): 1.57% | viability, T/C (second compound 0.0316 µM, first compound 0.03 µM): 1.39% | viability, T/C (second compound 0.0316 µM, first compound 0.0949 µM): 1.1% | viability, T/C (second compound 0.0316 µM, first compound 0.3 µM): 0.42% | viability, T/C (second compound 0.1 µM, first compound 0.000949 µM): 1.05% | viability, T/C (second compound 0.1 µM, first compound 0.003 µM): 1.72% | viability, T/C (second compound 0.1 µM, first compound 0.00949 µM): 1.5% | viability, T/C (second compound 0.1 µM, first compound 0.03 µM): 1.76% | viability, T/C (second compound 0.1 µM, first compound 0.0949 µM): 0.66% | viability, T/C (second compound 0.1 µM, first compound 0.3 µM): 0.29% | viability, T/C (second compound 0.316 µM, first compound 0.000949 µM): 1.29% | viability, T/C (second compound 0.316 µM, first compound 0.003 µM): 1.22% | viability, T/C (second compound 0.316 µM, first compound 0.00949 µM): 1.39% | viability, T/C (second compound 0.316 µM, first compound 0.03 µM): 1.21% | viability, T/C (second compound 0.316 µM, first compound 0.0949 µM): 0.77% | viability, T/C (second compound 0.316 µM, first compound 0.3 µM): 0.57% | viability, T/C (second compound 1 µM, first compound 0.000949 µM): 0.82% | viability, T/C (second compound 1 µM, first compound 0.003 µM): 1.08% | viability, T/C (second compound 1 µM, first compound 0.00949 µM): 1.07% | viability, T/C (second compound 1 µM, first compound 0.03 µM): 0.91% | viability, T/C (second compound 1 µM, first compound 0.0949 µM): 0.91% | viability, T/C (second compound 1 µM, first compound 0.3 µM): 0.37%

NC1CCC(NC2CC2c2ccccc2)CC1 (stereo not given) + CNC(C)C(=O)NC1CN(S(=O)(=O)c2cccc(S(=O)(=O)N3CCC4CCC(C(=O)NC(c5ccccc5)c5ccccc5)N4C(=O)C(NC(=O)C(C)NC)C3)c2)CCC2CCC(C(=O)NC(c3ccccc3)c3ccccc3)N2C1=O
pIC50 (second compound 0.01 µM): > 9.50 | pIC50 (second compound 0.0316 µM): > 9.50 | pIC50 (second compound 0.1 µM): > 9.50 | pIC50 (second compound 0.316 µM): > 9.50 | pIC50 (second compound 1 µM): > 9.50 | viability, T/C (second compound 0.01 µM, first compound 0.000316 µM): 4.48% | viability, T/C (second compound 0.01 µM, first compound 0.001 µM): 3.37% | viability, T/C [1]: 3.36% | viability, T/C [2]: 4.1% | viability, T/C [3]: 4.51% | viability, T/C [4]: 3.46% | viability, T/C (second compound 0.0316 µM, first compound 0.000316 µM): 1.91% | viability, T/C (second compound 0.0316 µM, first compound 0.001 µM): 3.37% | viability, T/C [5]: 2.61% | viability, T/C [6]: 2.96% | viability, T/C [7]: 2.47% | viability, T/C [8]: 2.27% | viability, T/C (second compound 0.1 µM, first compound 0.000316 µM): 2.48% | viability, T/C (second compound 0.1 µM, first compound 0.001 µM): 2.67% | viability, T/C [9]: 3.07% | viability, T/C [10]: 2.19% | viability, T/C [11]: 2.11% | viability, T/C [12]: 2.38% | viability, T/C (second compound 0.316 µM, first compound 0.000316 µM): 1.42% | viability, T/C (second compound 0.316 µM, first compound 0.001 µM): 3.18% | viability, T/C [13]: 2.55% | viability, T/C [14]: 0.99% | viability, T/C [15]: 1.23% | viability, T/C [16]: 0.81% | viability, T/C (second compound 1 µM, first compound 0.000316 µM): 1.08% | viability, T/C (second compound 1 µM, first compound 0.001 µM): 1.04% | viability, T/C [17]: 1.62% | viability, T/C [18]: 0.85% | viability, T/C [19]: 0.86% | viability, T/C [20]: 0.84%
